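Test compounds were applied to cells in 96-well plates for 48 hours at 5 doses. GI50 marks 50% less growth. TGI: total growth inhibition.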
What was measured:
Assay in all cases: NCI anticancer screen, dose series, 48 h
T-47D breast = tested on: T-47D breast
SF-268 CNS = tested on: SF-268 CNS
DU-145 prostate = tested on: DU-145 prostate
IGROV1 ovarian = tested on: IGROV1 ovarian
MCF7 breast = tested on: MCF7 breast
RPMI-8226 leukemia = tested on: RPMI-8226 leukemia
RXF 393 renal = tested on: RXF 393 renal
UACC-257 melanoma = tested on: UACC-257 melanoma
HS 578T breast = tested on: HS 578T breast
NCI-H522 lung = tested on: NCI-H522 lung

Row | Compound | GI50 (T-47D breast) [µM] | TGI (T-47D breast) [µM] | GI50 (SF-268 CNS) [µM] | TGI (SF-268 CNS) [µM] | GI50 (DU-145 prostate) [µM] | TGI (DU-145 prostate) [µM] | GI50 (IGROV1 ovarian) [µM] | TGI (IGROV1 ovarian) [µM] | GI50 (MCF7 breast) [µM] | TGI (MCF7 breast) [µM] | GI50 (RPMI-8226 leukemia) [µM] | TGI (RPMI-8226 leukemia) [µM] | GI50 (RXF 393 renal) [µM] | TGI (RXF 393 renal) [µM] | GI50 (UACC-257 melanoma) [µM] | TGI (UACC-257 melanoma) [µM] | GI50 (HS 578T breast) [µM] | TGI (HS 578T breast) [µM] | GI50 (NCI-H522 lung) [µM] | TGI (NCI-H522 lung) [µM]
1 | N#Cc1c(N)nc(N2CCOCC2)c(C#N)c1-c1cccc(O)c1 | 42.7 | > 100 | > 100 | > 100 | > 100 | > 100 | 18.7 | 61.2 | 47 | > 100 | 48.7 | > 100 | 38.1 | 95.1 | > 100 | > 100 | 40.7 | > 100 | – | –
2 | C=C1C(=O)O[C@H]2[C@H]1CC/C(COC(=O)NCCc1c[nH]c3ccccc13)=C\CC[C@@]1(C)O[C@@H]21 | 1.7 | 4.41 | 2.94 | 13.5 | 1.19 | 2.68 | 1.09 | 2.9 | 0.585 | 2.26 | 0.826 | 4.26 | 1.16 | 2.56 | 2 | 4.83 | 10.3 | 38.4 | 1.26 | 2.84
3 | COc1cc(C(=O)O)ccc1NC(=O)[C@@H]1N[C@@H](CC(C)(C)C)[C@](C#N)(c2ccc(Cl)cc2F)[C@H]1c1cccc(Cl)c1F | 5.23 | 43.7 | 4.62 | 30.5 | 5.24 | 30.4 | 2.21 | 17.3 | 0.0328 | 4.12 | 2.51 | > 22.9 | 3.55 | 10.3 | 0.145 | 1.83 | 3.9 | 15.8 | 2.72 | 10.8
4 | N#C/C(=C\c1ccc(Cl)cc1)n1nnc2cc(F)c(F)cc21 | 1.31 | 4.72 | 1.98 | 4.45 | 1.69 | 3.11 | 1.97 | 4.46 | 1.53 | 4.49 | 1.39 | 5.29 | 1.46 | 3.11 | 2.14 | 5.58 | 2.76 | 8.49 | 1.59 | 3.85
5 | O=C1CN2CCC1C/C2=C\c1ccnc2c(Cl)cccc12 (centres undefined) | 18.8 | > 100 | > 100 | > 100 | > 100 | > 100 | 34 | > 100 | 4.16 | > 100 | 29.5 | > 100 | > 100 | > 100 | 59.7 | > 100 | > 100 | > 100 | 53.5 | > 100
6 | O=C(c1cccs1)c1c(C(F)(F)F)n([O-])c2cc(C(F)(F)F)ccc2[n+]1=O | 0.154 | 0.4 | 0.163 | 0.334 | 0.179 | 0.326 | 0.29 | 0.848 | 0.187 | 0.41 | 0.211 | 0.59 | 0.184 | 0.351 | 0.662 | 1.82 | 0.189 | 0.546 | 0.294 | 0.738
7 | Cc1c(N(C(=O)c2cc(-c3cc(Cl)ccc3C(=O)N3Cc4ccccc4C[C@H]3CN3CCOCC3)n(C)c2C)c2ccc(O)cc2)cc(C#N)n1C | 7.09 | > 100 | 20.5 | > 100 | 32.5 | > 100 | 23.8 | > 100 | 23.5 | > 100 | 7.32 | > 100 | 3.88 | 17.6 | 20.1 | > 100 | 19 | 75.3 | 20.4 | > 100
8 | COc1cc(-c2ccc(-[n+]3nc(-c4ccc([N+](=O)[O-])cc4)nn3-c3ccc([N+](=O)[O-])cc3)c(OC)c2)ccc1-[n+]1nc(-c2ccc([N+](=O)[O-])cc2)nn1-c1ccc([N+](=O)[O-])cc1 | 0.3 | 5.75 | 1.66 | 5.38 | 2.9 | 9.29 | 0.707 | 51.7 | 1.75 | 4.47 | 10.1 | 67.8 | 2.25 | 6.08 | 2.83 | 12 | 1.93 | 5.07 | 0.672 | 7.71
9 | COc1cc(/C=C2\C[C@H]3[C@@H]4CC=C5C[C@@H](OC(C)=O)CC[C@]5(C)[C@H]4CC[C@]3(C)[C@H]2OC(C)=O)ccc1OCCCn1ccnc1 | 16 | > 50 | 9.63 | 21.6 | 9.14 | 18.7 | 16.8 | > 50 | 9.95 | 20.9 | 0.515 | 1.77 | 1.78 | 10.4 | 8.43 | 17.3 | 5.85 | 16.5 | 12.8 | > 36.3
10 | O=C1OC2(c3ccccc31)c1cc(I)c(O)c(I)c1Oc1c2cc(I)c(O)c1I | – | > 100 | – | > 100 | – | > 100 | – | > 100 | – | > 100 | – | > 100 | – | > 100 | – | > 100 | – | > 100 | – | 78.5
11 | COc1ccc(C(=O)c2ccc(OC)cc2OC)cc1 | 3.09 | > 100 | 7.57 | > 100 | 3.52 | 25.6 | 2.61 | 40.9 | 2.75 | > 100 | 3.18 | 18.7 | 1.56 | 6.15 | 5 | > 100 | 3.5 | 31.4 | 1.06 | 4.38
12 | C[C@]12CC[C@H]3[C@@H](CC=C4C[C@@H](O)CC[C@@]43C)[C@@H]1C/C(=C\c1cccc(OCCCn3ccnc3)c1)[C@@H]2O | 6.4 | 30.1 | 16.8 | 37.5 | 14.2 | 28.3 | 16.8 | 33.6 | 14.5 | 34.2 | 5.32 | 25 | 4.7 | 20.8 | 13.1 | 29.2 | 5.16 | 23.4 | 14.6 | 27.7
13 | Fc1ccc(Nc2ccc3cc(OCCCN4CCOCC4)ccc3n2)cc1F | 6.68 | > 100 | 6.55 | > 100 | 6.85 | > 100 | 10.9 | > 100 | 3.11 | 27 | 6.96 | > 100 | 2.45 | 7.32 | 2.77 | 6.88 | 3.06 | 9.2 | 2.15 | 5.37
14 | O=C(/C=C/C12c3ccccc3C(c3ccccc31)C1C(=O)NC(=O)C12)c1ccco1 (centres undefined) | 3.43 | 20.3 | 2.72 | 9.1 | 2.98 | 11.9 | 3.24 | 9.73 | 2.49 | 12.6 | 1.1 | 4.21 | 1.79 | 3.48 | 4.4 | 15.6 | 4.16 | 30.2 | 1.84 | 3.75
15 | Cc1cc(S(=O)(=O)/N=C(\N)n2nc(C)c(C)c2C)c(SCc2ccccc2)cc1Cl | 3.14 | > 100 | > 100 | > 100 | > 100 | > 100 | – | – | 5.12 | > 100 | 2.9 | > 100 | 58.6 | > 100 | 63.8 | > 100 | > 100 | > 100 | > 100 | > 100
16 | COc1cc2c(cc1OCCCCCN1CCN(c3cc(=O)oc4c(C)c(OC)ccc34)CC1)N=C[C@@H]1CCCN1C2=O | < 0.0174 | – | < 0.01 | 0.318 | < 0.01 | 5.36 | < 0.01 | 0.0251 | < 0.01 | 3.43 | < 0.01 | < 0.0118 | < 0.01 | < 0.0127 | – | – | < 0.0198 | 0.791 | < 0.01 | < 0.0352
17 | O=C(/C=C/c1ccc2c(c1)OCO2)c1ccccc1 | 15.5 | 39.5 | 15 | 35.6 | 10.2 | 22.1 | 4.43 | 27.7 | 4.02 | 30 | 4.84 | > 100 | 14.3 | 28.7 | 18.6 | 39.5 | 11.8 | 45.6 | – | –
18 | COc1cc(/C=C/C(=O)CC(=O)/C=C/c2ccc(OC(=O)CCNC34CC5CC(CC(C5)C3)C4)c(OC)c2)ccc1OC(=O)CCNC12CC3CC(CC(C3)C1)C2 | 5.89 | 59.8 | 3.01 | 13.2 | 1.4 | 3.13 | 3.52 | 8.08 | 2.36 | 9.89 | 2.1 | 6.01 | – | – | 4.24 | 19.4 | 2.85 | 9.17 | 4.27 | 16.1

From PubChem BioAssay (NCI)
